Data: PubChem BioAssay (NCI)
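Following 48 hours of exposure in 96-well plates, responses at five concentrations were used to interpolate endpoints linearly. GI50 is the concentration that inhibits growth by half. TGI: total growth inhibition.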

Experiments:
Assay in all cases: NCI-60 cell line screen, 48 h
[1] = test system: NCI/ADR-RES ovarian
[2] = test system: MDA-N
[3] = test system: HS 578T breast
[4] = test system: DU-145 prostate
[5] = test system: PC-3 prostate
[6] = test system: SK-MEL-2 melanoma
[7] = test system: CCRF-CEM leukemia
[8] = test system: SK-MEL-28 melanoma
[9] = test system: NCI-H226 lung

| Structure (SMILES) | TGI [1] [µM] | TGI [2] [µM] | TGI [3] [µM] | TGI [4] [µM] | TGI [5] [µM] | TGI [6] [µM] | TGI [7] [µM] | TGI [8] [µM] | TGI [9] [µM] | GI50 [1] [µM] | GI50 [3] [µM] | GI50 [6] [µM] | GI50 [7] [µM] | GI50 [8] [µM] |
| --- | --- | --- | --- | --- | --- | --- | --- | --- | --- | --- | --- | --- | --- | --- |
| CCOC(=O)Nc1ccc(S(=O)(=O)Nn2cnnc2)cc1 | > 100 | 73.9 | > 100 | > 100 | > 100 | > 100 | > 100 | > 100 |  |  |  |  |  |  |
| NC(=S)NC/C=C/Cl | > 100 | > 100 | > 100 | > 100 | > 100 | > 100 | > 100 |  | > 100 |  |  |  |  |  |
| Cn1c(=O)sc2cc(C(=S)N3CCCCC3)ccc21 | > 100 | > 100 | > 100 | > 100 | > 100 | > 100 | 43 | > 100 | > 100 |  |  |  |  |  |
| Cc1cc(-c2nc3cccc(O)c3s2)ccc1N | 55.9 | > 100 | 46.4 | > 100 | 98.5 | > 100 | 65.2 | > 100 | > 100 |  |  |  |  |  |
| CCN(CC)C(=O)CCN1CC1 | > 10 | > 10 | > 10 | > 10 | > 10 | > 10 | > 10 | > 10 | > 10 |  |  |  |  |  |
| Cc1cc(S(=O)(=O)/N=C(/NN)Nc2ccc(Cl)cc2)c(S)cc1Cl | 23.4 | 22.5 | 11.3 | 17.2 | > 100 | 76.9 | 94 | 60.3 | 43.3 |  |  |  |  |  |
| CCOC1=C(c2ccccc2)N2CCCCC2O1 (stereo unspecified) | > 96.4 | 21.7 | 33.1 | > 86.8 | 22.3 | 7.99 | > 72.4 | > 63.2 | 32.5 |  |  |  |  |  |
| COc1cccc(C2c3cc4c(cc3OC(Nc3ccccc3)C2C)OCO4)c1O (stereo unspecified) | > 100 | 6.98 | > 62.6 | > 53.9 | 36.9 | 51.9 | 16.6 | 27 | 33.2 |  |  |  |  |  |
| O=c1c2nc(-c3ccccc3)oc2n(-c2ccccc2)c(=O)n1-c1ccccc1 | > 31.6 | > 46.4 | 39.5 | > 100 | > 46.4 | > 46.4 | > 46.4 | > 100 | 44.1 |  |  |  |  |  |
| CC1=CCC[C@H]2[C@](C)(CC3=CC(=O)C(SCC(C)C)=CC3=O)[C@@H](C)CC[C@]12C | 38.8 |  |  | 30.9 | 30.9 | 31 | 3.72 | 32.5 | 28.9 |  |  |  |  |  |
| CC1(C)CC[C@]2(C(=O)O)CC[C@]3(C)[C@H](C(=O)C=C4[C@@]5(C)C=C(C#N)C(=O)C(C)(C)[C@@H]5CC[C@]43C)[C@@H]2C1 | 4.68 |  | 10.4 | 2.39 | 1.97 | 3.88 | > 100 | 2.35 | 4.02 |  |  |  |  |  |
| O=C1/C(=C/c2cccc3ccccc23)CCc2ccc([N+](=O)[O-])cc21 | > 100 | 23.4 | 47.7 | > 100 | > 100 |  | > 100 | > 100 | > 100 |  |  |  |  |  |
| CC(C)(C)C1=C(Br)C(O)(C(C)(C)C)OP1(=O)c1ccccc1 (stereo unspecified) | > 100 | > 100 | > 100 | > 100 | > 100 | > 100 | > 100 | > 100 |  |  |  |  |  |  |
| CCSC1=CC2(O)N(CCc3ccc(OC)c(OC)c3)C(=O)CC2(C(=O)OC)CC1=O (stereo unspecified) | > 100 | > 100 |  | 32.6 | 35.5 | 38.9 | > 100 | > 100 | > 100 |  |  |  |  |  |
| COC(=O)Cn1cnc2c(Cl)nc(Nc3ccccc3)nc21 | > 100 | > 100 | 54.1 |  | > 100 | 48.8 | 96.7 | > 100 | > 100 |  |  |  |  |  |
| O=C(c1ccc(Cl)cc1)N1CCN=C1c1cc2ccccc2c2ccccc12 | 33.3 | 31.9 | 35.9 | 38.4 | 37.2 | 31.4 | 81.1 | 29.7 |  |  |  |  |  |  |
| CC1(C)Oc2ccc3c(=O)cc(-c4ccccc4)oc3c2C1C(=O)O (stereo unspecified) | > 100 | > 100 | > 100 | > 100 | > 100 | > 100 | > 100 |  | > 100 |  |  |  |  |  |
| O=[Se](O)O | > 54.9 |  | > 100 | 10.8 | 7.63 | > 39.4 | > 100 | 26.8 | 2.48 |  |  |  |  |  |
| C[C@H](C1CC2(C)OC2(C)C(=O)O1)[C@H]1CC[C@H]2[C@@H]3[C@@H]4O[C@@H]4[C@@]4(O)CC=CC(=O)[C@]4(C)[C@H]3CC[C@]12C (stereo partly specified) | > 50 | > 50 |  | > 50 | > 50 | > 50 |  | > 50 | > 50 |  |  |  |  |  |
| COc1ccc(C(=O)/C=C/c2cc(-c3cc(OC)c(OC)c(OC)c3)n[nH]2)cc1 | 9.85 |  | > 100 |  |  | 19.6 | 5.85 | 4.42 |  | 2.76 | 3.6 | 4.14 | 1.42 | 2.12 |
| O=[N+]([O-])/C(C(Cl)=C(Cl)Cl)=C(/Nc1cccc2cccnc12)n1nnc2ccccc21 | 53.7 | 27.2 | 33.3 |  | 51.3 | 33.5 | > 100 | 33.5 | 67.4 |  |  |  |  |  |
| S=C1SC(=Nc2ccccc2)C(=Nc2ccccc2)N1c1ccc2ccccc2c1 | > 100 | > 100 | > 100 | > 100 | > 100 | > 100 | > 100 | > 100 | > 100 |  |  |  |  |  |
| O=C(O)c1cccc(NC(C(=O)c2ccccc2)c2ccccc2)c1 (stereo unspecified) | > 100 | > 100 | 80.6 | > 100 | > 100 | > 100 | > 100 | > 100 |  |  |  |  |  |  |
| CC(C)Oc1cccc(N2C(Nc3ccccc3)=Nc3ccncc3S2(=O)=O)c1 | 53.3 | > 100 | > 100 | > 100 | 45.6 | > 100 | 62.4 | 17.2 | 83.2 |  |  |  |  |  |
